Experimental data reported in patent publication US11008572B2, “Methods and compositions for modulating splicing” (SKYHAWK THERAPEUTICS, INC., priority 2017, dated 2021).
Read-outs that look alike come from different tables or passages of the source.

Tests used:
A673 cells = assay: Dose-response cell proliferation, crystal violet assay, 72 h; format: cell-based; conditions: ratio of IC50 in NHDF cells to IC50 in A673 cells
Description: Small molecule splicing modulators were tested in a dose-response assay using A673 cells and NHDF cells.
A673 cells or NHDF cells were first plated in 96-well plastic tissue culture plates (10,000 cells per well). The cells were treated with vehicle alone (DMSO), or increasing concentrations of SMSM compounds for 72 h. Following treatment, cell proliferation was determined using a crystal violet assay. The relative cell proliferation at each concentration was determined.

[1] = test system: FOXM1^A2 mRNA and FOXM1^BC mRNA; assay: Splicing assay (FOXM1), qPCR of isoform mRNAs; format: cell-based; conditions: for EC50: read-out: Splice EC50 (nM) FoxM1 A mRNA increase (exon excluded)
Summary of the method: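 Cells (20,000/well) treated at plating with compound, 8-point 4-fold series from 10 μM, 0.2% DMSO, 24 h at 37° C. Isoform mRNAs quantified by RT-qPCR against plasmid standards, normalized to PPIA and DMSO control; isoform ratio computed per concentration.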

A-673 cells = assay: Cell viability, crystal violet staining; format: cell-based; conditions: Homo sapiens
Summary of the method: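 Readout is absorbance at 570 nm of crystal violet, taken up in 0.1 M sodium citrate in 50% ethanol after staining with 0.5% dye in 25% methanol. Plates held 5×10^3 cells per well, and compounds were added one day after seeding for 72 hours. Data are relative to vehicle, mean±SE.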

[2] = Maximum tolerable dose study; format: in vivo; conditions: mice, 3 per group
Description: Survival of mice after administration of SMSMs after 10 or 11 days was assessed.
Tolerance of the drug treatments was determined by measuring the weight of the mice during the period of drug administration. Body weight was measured prior to tumor inoculation and prior to the treatment administration and then daily. The changes in the final weight of the mice for the SMSM treatments were determined.

[3] = Splicing (IC50), Example 22; format: cell-based; conditions: spliced gene and cells not stated
Description: A-673 cell viability […], splicing (IC50) and brain AUC/Plasma AUC of SMSMs were determined. As shown in the tables below SMSMs had high CNS exposure.

SMN2^FL mRNA = assay: SMN2 splicing assay, real-time quantitative PCR, SMA type I patient cells (GM03813); format: cell-based; conditions: Homo sapiens, 24 hours
Description: (§1) Various cells lines were treated with the SMSMs described herein. RNA was then isolated, cDNA synthesized, qPCR performed and the levels of various mRNA targets of the SMSMs were determined. In some instances, RNA was isolated, cDNA synthesized, qPCR performed and the levels of mRNA isoforms in the various cell samples were determined.
(§2) SMA type I patient cells (GM03813 (Coriell))
(§3) On the day of the experiment, a 96-well plate was seeded with the cell lines of interest. The cells were diluted with full growth media to a concentration of 2.0×10^5 cells/mL and 100 μL of cells were added to each well (20,000 cells per well). The cells were treated with a compound immediately after plating.
(§4) The compounds were then added to the cell plate using the HP compound dispenser. In the initial experiment, a top concentration of 10 μM and an 8 point 4-fold dilution scheme was used. The stock compounds were made at a concentration of 5 mM, and the DMSO concentration was set to 0.2%. DMSO was used to normalize all the compound-containing wells and the untreated cells.
(§5) The treated cells were incubated at 37° C. in a 5% CO2 incubator for the desired amount of time. Plates were placed in a plastic bag with a wet paper towel to prevent evaporation.
(§6) RNA was isolated using the Cells to CT kit (ThermoFisher, AM1728). The cells were washed once with 100 μL cold PBS. 50 μL of lysis buffer was added to each well/tube (49.5 μL lysis buffer+0.5 μL DNase I per well/tube). The lysis reaction was mixed and incubated at room temperature for 5 minutes. 5 μL of stop solution was added directly into each cell lysis reaction and mixed by pipetting up and down 5 times. The plates/tubes were incubated at room temperature for 2 minutes then placed on ice if the cDNA synthesis was to be performed immediately. Otherwise, the plates/tubes were stored at −80° C.
(§7) cDNA synthesis reactions were then performed. 40 μL RT master mix was added to PCR tubes or plate wells. 10 μL of RNA was added to each tube/well. The RT thermal cycler program was then run and tubes or plate wells were incubated at 37° C. for 1 hour, then at 95° C. for 5 minutes to deactivate the enzyme.
(§8) The qPCR was performed using a QuantStudio 6instrument (ThermoFisher) and the following cycling conditions and according to the tables below. All samples and standards were analyzed in triplicate. Cycle 1: 2 minutes at 50° C. Cycle 2: 10 minutes at 95′C. Cycle 3 (repeat 40 times): 15 seconds at 95° C., 1 minute at 60° C.
(§9) The determined SMN2^Δ7 and SMN2^FL quantities were then be used to determine the SMN2^Δ7:SMN2^FL ratio at the various compound concentrations. The PPIA quantities were used in the normalization to account of cell proliferation effects of the compounds.
(§10) An assay to measure the SMN2^FL mRNA and SMN2^Δ7 mRNA simultaneously in cell wells was performed. The RNA values were measured relative to DMSO control and also included a housekeeping gene, PPIA to ensure data was consistent. The mRNA values were measured after 24 hours of incubation with the SMSM compounds.
(§11) Additionally, to monitor expression levels of SMN2 splice variant using real-time quantitative PCR, SMA type I patient cells (GM03813 (Coriell)) were plated at 5,000 cells/well in 200 μl Dulbecco's modified Eagle's medium (DMEM) with GlutaMAX and 10% fetal bovine serum (FBS) (Life Technologies, Inc.) in 96-well plates, and incubated for 6 hours in a cell culture incubator. Cells were then treated with SMSMs at different concentrations (0.5% DMSO) in duplicate for 24 hours. After removal of the supernatant, cells were lysed in Cells-To-Ct lysis buffer (Life Technologies, Inc.) according to the manufacturer's recommendations. The mRNA levels of SMN2 FL, SMN2 A7 were quantified using Taqman-based RT-qPCR and SMN2-specific primers and probes. The SMN2 forward and reverse primers were each used at a final concentration of 0.4 μM. The SMN2 probe was used at a final concentration of 0.1 μM. […]

SMN2^Δ7 mRNA = assay: as above; format: cell-based; conditions: Homo sapiens, 24 hours
Description: as §1, §2, §3, §4, §5, §6, §7, §8, §9, §10, §11

[4] = FoxM1 BC mRNA decrease (exon included), read-out: Splice IC50 (nM) FoxM1 BC mRNA decrease (exon included)
[5] = Homo sapiens, A673, 24 h, A-673 cells, 24 hours, table does not say EC50 or IC50, read-out: FOXM1
[6] = Homo sapiens, A-375, 24 h, A-375 cells, 24 hours, table does not say EC50 or IC50, read-out: FOXM1
[7] = Homo sapiens, Hep3B, 24 h, Hep-3B cells, 24 hours, table does not say EC50 or IC50, read-out: FOXM1
[8] = Homo sapiens, K562, 24 h, K-562 cells, 24 hours, table does not say EC50 or IC50, read-out: FOXM1
[9] = Homo sapiens, MDA-MB-468, 24 h, MDA-MB-468 cells, 24 hours, table does not say EC50 or IC50, read-out: FOXM1
[10] = Homo sapiens, NCI-H358, 24 h, NCI-H358 cells, 24 hours, table does not say EC50 or IC50, read-out: FOXM1
[11] = Homo sapiens, PANC-1, 24 h, PANC-1 cells, 24 hours, table does not say EC50 or IC50, read-out: FOXM1
[12] = Homo sapiens, PC-3, 24 h, PC-3 cells, 24 hours, table does not say EC50 or IC50, read-out: FOXM1
[13] = Homo sapiens, U-87 MG, 24 h, U-87MG cells, 24 hours, table does not say EC50 or IC50, read-out: FOXM1
[14] = A673, cell viability, read-out: A-673 IC50 (nM) Cell viability
[15] = A673, read-out: A-673 cell viability (IC50)

CC(/C=C/C(=O)NO)=C\[C@@H](C)C(=O)c1ccc(N(C)C)cc1 [Trichostatin A]
Ratio NHDF/A673 IC50 (A673 cells): ≤10

CN(c1ccc(-c2cc(F)c(-c3cn[nH]c3)cc2O)nn1)[C@H]1C[C@]2(C)CC[C@](C)(C1)N2 [compound 167, 2-(6-(((1R,3s,5S)-1,5-dimethyl-8-azabicyclo[3.2.1]octan-3-yl)(methyl)amino)pyridazin-3-yl)-4-fluoro-5-(1H-pyrazol-4-yl)phenol]
IC50 [1, 4]: < 10 nM | IC50 [1, 5]: < 1 nM | IC50 [1, 6]: < 1 nM | IC50 [1, 7]: 11 to 100 nM | IC50 [1, 8]: 1 to 10 nM | IC50 [1, 9]: 1 to 10 nM | IC50 [1, 10]: < 1 nM | IC50 [1, 11]: 11 to 100 nM | IC50 [1, 12]: 11 to 100 nM | IC50 [1, 13]: 11 to 100 nM | EC50 [1]: < 10 nM | IC50 (A-673 cells; [14]): < 10 nM | IC50 (A-673 cells; [15]): < 0.5 nM | Ratio NHDF/A673 IC50 (A673 cells): >2,500 | Outcome ([2]; IP 0.1 mg/kg BIDx12): All survived | Outcome ([2]; IP 0.3 mg/kg BIDx12): All survived | Outcome ([2]; IP 1 mg/kg QDx12): All survived | Outcome ([2]; PO 5 mg/kg QDx12): All survived | IC50 [3]: < 1 nM

CN(c1ccc(-c2ccc(-c3ccn(C)c(=O)c3)cc2O)nn1)[C@H]1C[C@]2(C)CC[C@](C)(C1)N2 [compound 168, 4-(4-(6-(((1R,3s,5S)-1,5-dimethyl-8-azabicyclo[3.2.1]octan-3-yl)(methyl)amino)pyridazin-3-yl)-3-hydroxyphenyl)-1-methylpyridin-2(1H)-one]
IC50 [1, 4]: < 10 nM | IC50 [1, 5]: 1 to 10 nM | IC50 [1, 6]: 1 to 10 nM | IC50 [1, 7]: 101 to 200 nM | IC50 [1, 8]: 11 to 100 nM | IC50 [1, 9]: 11 to 100 nM | IC50 [1, 10]: 1 to 10 nM | IC50 [1, 11]: 101 to 200 nM | IC50 [1, 12]: 11 to 100 nM | IC50 [1, 13]: 11 to 100 nM | EC50 [1]: > 1000 nM | IC50 (A-673 cells; [14]): < 10 nM | IC50 (A-673 cells; [15]): ≤ 5 nM | Ratio NHDF/A673 IC50 (A673 cells): >500 | IC50 [3]: < 1 nM

COc1cc(-c2ccc(-c3ccc(N(C)[C@@H]4C[C@H]5CCC[C@@H](C4)N5)nn3)c(O)c2)ccn1 [compound 289, 2-(6-(((1R,3s,5S)-9-azabicyclo[3.3.1]nonan-3-yl)(methyl)amino)pyridazin-3-yl)-5-(2-methoxypyridin-4-yl)phenol]
EC50 (SMN2^FL mRNA): 4 nM | IC50 (SMN2^Δ7 mRNA): 4 nM | IC50 (A-673 cells; A673, cell viability, read-out: A-673 IC50 (nM), Cell viability): < 10 nM
